Measured values published in PMC10974084, “Combination of Betulinic Acid Fragments and Carbonic Anhydrase Inhibitors—A New Drug Targeting Approach” (Pharmaceutics, 2024).
Like-named read-outs stand apart in the source and are kept apart here. Values belong to the compound of their own block, whether it stands above or below them.

Experiments:
A375 melanoma cells = assay: SRB cytotoxicity assay, A375; type: cell-based; conditions: Homo sapiens, read-out: IC50 A375
Method: (§1) All of the compounds were dissolved in dimethyl sulfoxide (DMSO) to achieve a 20 mM stock solution. Cells were seeded in cell culture flasks 24 h before treatment. The treatment was performed for 24 h.
(§2) The cytotoxicity of the drugs was determined in 2D tumor models using sulforhodamine B (SRB) assays. Treatment started 24 h after seeding the tumor cells in 96-well plates as previously described.

[1] = test system: MCF-7 breast cancer cells; assay: SRB cytotoxicity assay, MCF-7; type: cell-based; conditions: Homo sapiens, read-out: IC50 MCF-7
Method: as §1, §2

[2] = test system: A2780 ovarian cancer cells; assay: SRB cytotoxicity assay, A2780; type: cell-based; conditions: Homo sapiens, read-out: IC50 A2780
Method: as §1, §2

MDA-MB-231 spheroids = assay: Spheroid cytotoxicity assay (luciferase), MDA-MB-231; type: cell-based, human; conditions: read-out: IC50 MDA-MB-231 spheroids
Method: (§3) To determine cytotoxicity in the 3D tumor models, spheroid cytotoxicity assays were performed as previously described. […] For generation of single tumor spheroids, tumor cells resuspended in culture medium were seeded into 96-well plates, which were coated before with 0.7% agarose (SeaKem® GTG™ Agarose, Lonza, Basel, Switzerland). After the formation of spheroids (48 h), they were treated with serial dilutions of compounds. Measurements of luciferase activity were performed on day 7, after supplementation with D-luciferin (Perkin Elmer, Rodgau, Germany), on a Tecan Spark microplate reader (Tecan, Männedorf, Switzerland). Generation of dose-response curves and calculation of IC50 values including standard deviations were accomplished using GraphPad Prism8.
(§4) Since the tumor cells stably express luciferase, analysis of spheroid growth and response to therapy is accomplished by measurement of bioluminescent signal intensity.

Hs578T spheroids = assay: Spheroid cytotoxicity assay (luciferase), Hs578T; type: cell-based, human; conditions: read-out: IC50 Hs578T spheroids
Method: as §3, §4

[3] = target: recombinant human carbonic anhydrase IX (Homo sapiens, UniProt Q16790); assay: hCA IX esterase assay with p-nitrophenyl acetate
Method: In this measurement, the enzymatically catalyzed hydrolysis of p-nitrophenyl acetate to p-nitrophenol was investigated. […] This was followed by measurement of the v-S-characteristics with inhibitor. […] For each run, 2 experimental series (biological replicate) were prepared simultaneously and measured for 10 min at a measurement interval of 8 s, also as a two-fold determination (technical replicate). […] The resulting reaction velocities, calculated from a calibration curve with p-nitrophenole under the same conditions, were plotted against the substrate concentration. The kinetic evaluation for competitive inhibition was then performed with the program GraphPad Prism.

[4] = A-375, SRB assay, 96 h incubation, mean ± SD
[5] = MCF7, SRB assay, 96 h incubation, mean ± SD
[6] = A2780, SRB assay, 96 h incubation, mean ± SD
[7] = Homo sapiens, MDA-MB-231, 168 h, 7 days of treatment, 3 independent experiments
[8] = Homo sapiens, Hs-578T, 168 h, 7 days of treatment, 3 independent experiments
[9] = 7 days of treatment, 3 independent experiments

SMILES: C=C(C)C1CCC2(C(=O)NCCOCCOC(=O)CCC(=O)Nc3nnc(S(N)(=O)=O)s3)CCC3(C)C(CCC4C5(C)CCC(OC(C)=O)C(C)(C)C5CCC43C)C12 (centres unmarked) [Compound 12]
- IC50 (A375 melanoma cells; [4]): > 100 µM
- IC50 [1, 5]: > 100 µM
- IC50 [2, 6]: 35.1 ± 3.4 µM
- IC50 (MDA-MB-231 spheroids; [7]): > 100 µM
- IC50 (Hs578T spheroids; [8]): > 100 µM
- melting point: 92 to 94 °C
- reduction of hCA IX activity ([3]; 10 µM of the compound, p-nitrophenyl acetate): 40%
- remaining activity at 10 µM ([3]; read-out: residual activity (r.a.) of hCA IX): 60%

- Ki [3]: 0.146 µM
SMILES: NS(=O)(=O)c1nnc(NC(=O)CCC(=O)NCCOCCO)s1 [Compound 8, N-[5-(Aminosulfonyl)-1,3,4-thiadiazol-2-yl]-N’-[2-(2-hydroxyethoxy)-ethyl]-succinamide]
- IC50 (A375 melanoma cells; [4]): > 100 µM
- IC50 [1, 5]: > 100 µM
- IC50 [2, 6]: > 100 µM
- IC50 (MDA-MB-231 spheroids; [7]): > 100 µM
- IC50 (Hs578T spheroids; [8]): > 100 µM

SMILES: NS(=O)(=O)c1ccc(NC(=O)Nc2ccc(F)cc2)cc1 [Compound U-104, reference compound]
- IC50 (MDA-MB-231 spheroids; [9]): 33.5 ± 7.6 µM
- IC50 (Hs578T spheroids; [9]): 83.9 ± 12.4 µM

SMILES: C=C(C)C1CCC2(C(=O)NCCOCCOC(=O)CCC(=O)O)CCC3(C)C(CCC4C5(C)CCC(OC(C)=O)C(C)(C)C5CCC43C)C12 (centres unmarked) [Compound 11]
- IC50 (A375 melanoma cells; [4]): 10.5 ± 0.6 µM
- IC50 [1, 5]: 7.3 ± 0.4 µM
- IC50 [2, 6]: 12.3 ± 1.5 µM
- melting point: 78 to 82 °C

SMILES: C=C(C)C1CCC2(COC(=O)CCC(=O)O)CCC3(C)C(CCC4C5(C)CCC(OC(C)=O)C(C)(C)C5CCC43C)C12 (stereo not drawn) [Compound 4, 4-{[(3beta)-3-(Acetyloxy)-lup-20(29)-en-28-yl]-oxy}-4-oxobutanoic Acid]
- IC50 (A375 melanoma cells; [4]): 12.1 ± 1.5 µM
- IC50 [1, 5]: 9.8 ± 0.6 µM
- IC50 [2, 6]: 12.3 ± 3.9 µM
- melting point: 122 to 125 °C

SMILES: NS(=O)(=O)c1nnc(NC(=O)CCC(=O)O)s1 [Compound 7, 4 {[5-(Amino sulfonyl)-1,3,4-thiadiazol-2-yl]-amino}-4-oxobutanoic Acid]
- IC50 (A375 melanoma cells; A-375, 96 h): > 100 µM
- IC50 ([1]; MCF7, 96 h): > 100 µM
- IC50 ([2]; A2780, 96 h): > 100 µM
- IC50 (MDA-MB-231 spheroids; Homo sapiens, MDA-MB-231, 168 h): > 100 µM
- IC50 (Hs578T spheroids; Homo sapiens, Hs-578T, 168 h): > 100 µM
